From patent US20110104289A1, “METHOD AND PHARMACEUTICAL COMPOSITION FOR OBTAINING THE PLASMATIC PROGESTERONE LEVELS REQUIRED FOR DIFFERENT THERAPEUTIC INDICATIONS” (POSI VISIONARY SOLUTIONS LLP, priority 2008, published 2011)

Assay: Progesterone plasma levels after intramuscular-type injection of injectable aqueous suspension of progesterone particles
Format: in vivo, post-menopausal women
Conditions: female, human, humans, across the dosing schemes (100-300 mg, single or repeated injection), read-out: maximum plasma concentrations (Cmax)
Protocol: 12 post-menopausal women were administered with a 100 mg single injection of progesterone spherical microparticles, in the form of an injectable aqueous suspension. Obtained plasma levels are illustrated in FIG. 1, wherein progesterone plasma concentrations are observed to be maintained up to 7 days in suitable levels for several therapies requiring said progesterone concentrations. 12 post-menopausal women were administered with a single 200 mg injection of progesterone spherical microparticles in the form of an injectable aqueous suspension. Obtained plasma levels are illustrated in FIG. 2, wherein progesterone plasma concentrations are observed to be maintained up to 7 days in suitable levels for several therapies requiring said progesterone concentrations and described in page 2. Four 200 mg repeated injections of progesterone spherical microparticles were administered in the form of an injectable aqueous suspension to 15 post-menopausal women. Obtained plasma levels are illustrated in FIG. 3, wherein progesterone plasma concentrations are observed to be maintained up to 7 days in suitable levels for several therapies requiring said progesterone concentrations and described in page 2. Four 300 mg repeated injections of progesterone spherical microparticles were administered in the form of an injectable aqueous suspension to 13 post-menopausal women. […]

Cmax: 12 to 42 ng/mL
Compound: CC(=O)[C@H]1CC[C@H]2[C@@H]3CCC4=CC(=O)CC[C@]4(C)[C@H]3CC[C@]12C [progesterone]
